Here are results for six compounds from US10377753B2, “Substituted 4-azaindoles and their use as GluN2B receptor modulators” (Janssen Pharmaceutica NV, priority 2015, dated 2019).

The target of this assay is cloned human NR1/NR2B ion channels (Homo sapiens (Human), UniProt Q05586+Q13224). Kind of assay: HNR2BC: effects of test articles on cloned human NR1/NR2B ion channels expressed in mammalian cells (FLIPR calcium flux). Type of assay: cell-based. Particulars: cloned human NR1/NR2B ion channels, Table 5. Put shortly: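 In a stable Tet-On-induced cell line expressing human GluN1/GluN2B, Calcium 5-loaded cells were preincubated 5 min with compound, then stimulated 5 min with glutamate at ~EC80 plus 10 μM glycine, in pH 7.4 HEPES buffer. FLIPR calcium fluorescence was normalized to control wells.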
cloned human NR1/NR2B ion channels, sequence (Q13224 27-1484, other chains not shown): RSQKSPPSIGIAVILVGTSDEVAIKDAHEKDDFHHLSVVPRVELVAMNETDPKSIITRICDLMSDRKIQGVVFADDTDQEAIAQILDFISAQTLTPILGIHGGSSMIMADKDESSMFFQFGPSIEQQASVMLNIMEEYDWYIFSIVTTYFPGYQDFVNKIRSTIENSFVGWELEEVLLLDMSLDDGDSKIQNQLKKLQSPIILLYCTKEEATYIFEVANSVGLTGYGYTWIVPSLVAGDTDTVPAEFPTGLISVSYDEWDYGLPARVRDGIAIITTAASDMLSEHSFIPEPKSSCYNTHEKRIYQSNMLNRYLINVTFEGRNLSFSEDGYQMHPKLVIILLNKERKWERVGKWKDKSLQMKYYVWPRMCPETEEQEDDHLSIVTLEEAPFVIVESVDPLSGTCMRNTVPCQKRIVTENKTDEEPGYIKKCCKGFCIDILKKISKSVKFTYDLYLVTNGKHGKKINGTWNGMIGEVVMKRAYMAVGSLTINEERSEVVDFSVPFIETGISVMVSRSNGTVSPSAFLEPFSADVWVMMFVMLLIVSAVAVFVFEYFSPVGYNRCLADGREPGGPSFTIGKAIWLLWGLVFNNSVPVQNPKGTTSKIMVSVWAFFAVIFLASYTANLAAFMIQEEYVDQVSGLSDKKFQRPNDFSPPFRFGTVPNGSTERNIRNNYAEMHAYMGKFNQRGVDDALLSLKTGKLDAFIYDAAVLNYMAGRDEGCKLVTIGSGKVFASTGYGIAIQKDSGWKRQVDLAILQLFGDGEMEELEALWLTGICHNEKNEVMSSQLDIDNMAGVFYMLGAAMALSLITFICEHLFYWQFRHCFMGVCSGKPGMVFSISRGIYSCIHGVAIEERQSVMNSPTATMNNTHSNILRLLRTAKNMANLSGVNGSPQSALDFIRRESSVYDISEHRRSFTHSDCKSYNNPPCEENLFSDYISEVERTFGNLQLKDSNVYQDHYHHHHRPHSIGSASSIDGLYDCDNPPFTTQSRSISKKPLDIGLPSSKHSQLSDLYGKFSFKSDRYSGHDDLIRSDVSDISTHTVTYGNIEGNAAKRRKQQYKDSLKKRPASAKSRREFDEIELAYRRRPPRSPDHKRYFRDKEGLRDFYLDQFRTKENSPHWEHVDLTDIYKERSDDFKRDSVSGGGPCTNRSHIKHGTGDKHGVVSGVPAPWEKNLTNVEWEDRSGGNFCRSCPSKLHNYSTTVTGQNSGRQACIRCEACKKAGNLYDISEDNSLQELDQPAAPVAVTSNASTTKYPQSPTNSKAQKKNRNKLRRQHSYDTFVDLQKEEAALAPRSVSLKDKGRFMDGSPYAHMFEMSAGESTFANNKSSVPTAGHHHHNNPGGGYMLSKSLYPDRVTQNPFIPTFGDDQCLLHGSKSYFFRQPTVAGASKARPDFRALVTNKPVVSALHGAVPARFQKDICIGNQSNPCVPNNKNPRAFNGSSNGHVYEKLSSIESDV
On the technique in general: A change in cytosolic calcium serves as a functional read-out for many receptors and channels.
One may read the IC50 as the point on the concentration scale where inhibition reaches its midpoint. For `Cc1ccc(-c2cnc3c(C)cn(CC(=O)N4CC(F)C4)c3c2)s1` [Example 634, 1-(3-Fluoroazetidin-1-yl)-2-[3-methyl-6-(5-methyl-2-thienyl)pyrrolo[3,2-b]pyridin-1-yl]ethanone], the IC50 was 0.631 µM.

In the case of `Cc1cn(CC(=O)N2CC(F)C2)c2cc(-c3cc(F)cc(F)c3)cnc12` [Example 635, 2-[6-(3,5-Difluorophenyl)-3-methyl-pyrrolo[3,2-b]pyridin-1-yl]-1-(3-fluoroazetidin-1-yl)ethanone], the IC50 was 0.316 µM.

Regarding `Cc1cn(CC(=O)N2CC(F)C2)c2cc(-c3ccc(Cl)s3)cnc12` [Example 636, 2-[6-(5-Chloro-2-thienyl)-3-methyl-pyrrolo[3,2-b]pyridin-1-yl]-1-(3-fluoroazetidin-1-yl)ethanone], the IC50 is 0.158 µM.

Turning to `Cc1ccc(-c2cnc3c(C)cn(CC(=O)N(C)C)c3c2)s1` [Example 637, N,N-Dimethyl-2-[3-methyl-6-(5-methyl-2-thienyl)pyrrolo[3,2-b]pyridin-1-yl]acetamide], the 50% inhibitory concentration (IC50) was 0.316 µM.

As for `Cc1cn(CC(=O)N2CC(F)C2)c2cc(-c3ccccc3F)cnc12` [Example 638, 1-(3-Fluoroazetidin-1-yl)-2-[6-(2-fluorophenyl)-3-methyl-pyrrolo[3,2-b]pyridin-1-yl]ethanone], the IC50 is 0.126 µM.

Turning to `CN(C)C(=O)Cn1ccc2ncc(-c3ccc(C(F)F)s3)cc21` [Example 639, 2-[6-[5-(Difluoromethyl)-2-thienyl]pyrrolo[3,2-b]pyridin-1-yl]-N,N-dimethyl-acetamide], the IC50 is 0.2 µM.
